According to patent US9884063B2, “Amido-substituted azole compounds” (Bayer Pharma Aktiengesellschaft, priority 2014, dated 2018):

Experiments:
TNKS2 = molecular target: T1, TNKS2 (Homo sapiens, UniProt Q9H2K2); experiment: Modified TNKS2 Assay 3 (BPS kit #80578, biotin-NAD+, 96 well); assay type: biochemical; conditions: human TNKS2, BPS kit #80578, 96 well
T1 sequence (Q9H2K2 1-1166): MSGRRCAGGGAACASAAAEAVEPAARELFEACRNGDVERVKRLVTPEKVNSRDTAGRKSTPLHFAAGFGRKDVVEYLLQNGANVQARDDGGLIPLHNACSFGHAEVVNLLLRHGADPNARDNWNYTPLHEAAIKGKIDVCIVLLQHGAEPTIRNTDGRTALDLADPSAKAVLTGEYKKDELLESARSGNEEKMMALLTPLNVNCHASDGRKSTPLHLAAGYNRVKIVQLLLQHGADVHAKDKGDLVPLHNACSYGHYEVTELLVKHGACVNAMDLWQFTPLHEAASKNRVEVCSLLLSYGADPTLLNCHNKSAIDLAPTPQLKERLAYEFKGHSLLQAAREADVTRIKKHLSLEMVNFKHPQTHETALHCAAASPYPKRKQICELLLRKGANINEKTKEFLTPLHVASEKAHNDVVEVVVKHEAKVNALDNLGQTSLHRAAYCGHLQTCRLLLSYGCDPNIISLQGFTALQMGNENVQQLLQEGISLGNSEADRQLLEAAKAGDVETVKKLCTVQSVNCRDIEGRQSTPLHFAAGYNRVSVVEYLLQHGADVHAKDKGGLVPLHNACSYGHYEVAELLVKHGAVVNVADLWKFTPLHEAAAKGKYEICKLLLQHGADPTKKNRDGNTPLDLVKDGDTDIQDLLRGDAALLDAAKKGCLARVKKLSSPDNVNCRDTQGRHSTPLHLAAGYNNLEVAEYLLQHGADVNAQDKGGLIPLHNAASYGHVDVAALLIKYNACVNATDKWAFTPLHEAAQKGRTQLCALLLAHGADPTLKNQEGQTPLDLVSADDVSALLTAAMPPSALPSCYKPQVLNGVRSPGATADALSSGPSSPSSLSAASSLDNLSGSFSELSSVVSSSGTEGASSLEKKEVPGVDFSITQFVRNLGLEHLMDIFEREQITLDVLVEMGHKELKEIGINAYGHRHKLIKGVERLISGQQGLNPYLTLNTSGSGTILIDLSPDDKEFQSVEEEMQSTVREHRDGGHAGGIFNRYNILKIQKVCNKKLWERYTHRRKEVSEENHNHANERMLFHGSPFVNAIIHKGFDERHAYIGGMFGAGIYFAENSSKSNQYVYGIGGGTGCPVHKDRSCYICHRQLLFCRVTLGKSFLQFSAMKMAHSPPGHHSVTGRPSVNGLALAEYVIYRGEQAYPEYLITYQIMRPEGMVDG
Description: The potency of the compounds against human TNKS2 according to the invention was assessed using a commercially available biotin/streptavidin binding assay kits from BPS Bioscience, San Diego, USA (Catalog #80578 for TNKS2). The incorporation of a biotin-labeled NAD+ during the […] catalyzed ribosylation of a suitable protein substrate was detected using with a streptavidin-HRP coupled chemi-luminescent readout. The intensity of the readout signal is proportional to the incorporated NAD^+. Inhibition of TNKS2 leads to a decreased incorporation of NAD^+ and consequently to a lower readout signal intensity in the corresponding TNKS2 assays. The concentration of a test compound that inhibits the enzyme activity by 50% (corresponds to half of the normed readout signal intensity) is reported as IC50. The assay conducted in a 96 well MTP format according to the manufacturer's protocol and using a BMG Pherastar MTP reader [BMG-Labtech, Offenburg, Germany].

[1] = test system: wildtype Wnt signaling cascade; experiment: HEK293 TOP Assay (Super TopFlash luciferase reporter, Wnt-3a stimulated); assay type: cell-based; conditions: Homo sapiens, HEK293, 16 h, HEK293 TOP reporter cell line, Wnt-3a at EC50, 16 hours incubation, compound dilution series 50 μM to 15 nM
Outline: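 HEK293 cells stably carrying Super TopFlash (TOP) or FOP reporter, stimulated with recombinant human Wnt-3a (2500–5 ng/ml, two-fold steps). Both lines incubated in parallel with compound from 50 μM to 15 nM (3.16-fold) in CAFTY buffer pH 7.4 with 2 mM Ca2+ and 0.01% BSA; selectivity judged TOP vs FOP.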

[2] = test system: HEK293 FOP control reporter cell line; experiment: HEK293 FOP Assay (FOP control vector luciferase reporter); assay type: cell-based; conditions: Homo sapiens; HEK293 FOP control reporter cell line, 16 hours incubation, compound dilution series 50 μM to 15 nM
Outline: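 Stable HEK293 line carrying the FOP vector (randomized, non-functional TCF sites; Geneticin-selected) was run in parallel with the TOP line. Cells were plated 24 h ahead at 10000/well and given recombinant human Wnt-3a at 2500–5 ng/ml. Compounds were tested at 50 μM–15 nM (3.16-fold steps) in CAFTY buffer, pH 7.4, with 2 mM Ca2+ and 0.01% BSA.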

| IC50 (TNKS2) | IC50 [1] | Compound | IC50 [2] |
| --- | --- | --- | --- |
| 5 nM | 190 nM | CC1CCCCN1CCNC(=O)c1[nH]cnc1C(=O)Nc1ccc(NC(=O)c2ccccc2Cl)cc1 (centres unmarked) [Example 153, N^4-{4-[(2-chlorobenzoyl)amino]phenyl}-N^5-[2-(2-methylpiperidin-1-yl)ethyl]-1H-imidazole-4,5-dicarboxamide] | 35000 nM |
| 10 nM | 100 nM | CC1CCN(CCNC(=O)c2[nH]cnc2C(=O)Nc2ccc(NC(=O)c3ccccc3Cl)cc2)CC1 [Example 163, N^4-{4-[(2-chlorobenzoyl)amino]phenyl}-N^5-[2-(4-methylpiperidin-1-yl)ethyl]-1H-imidazole-4,5-dicarboxamide] | 37000 nM |
| < 0.5 nM | 80 nM | O=C(Nc1ccc(NC(=O)c2nc[nH]c2C(=O)NCCN2CCCC2)cc1)c1ccccc1Cl [Example 168, N^4-{4-[(2-chlorobenzoyl)amino]phenyl}-N^5-[2-(pyrrolidin-1-yl)ethyl]-1H-imidazole-4,5-dicarboxamide] | 27000 nM |
| 2 nM | 190 nM | O=C(Nc1ccc(NC(=O)c2nc[nH]c2C(=O)NCCN2CCC2)cc1)c1ccccc1Cl [Example 190, N^5-[2-(azetidin-1-yl)ethyl]-N4-{4-[(2-chlorobenzoyl)amino]phenyl}-1H-imidazole-4,5-dicarboxamide] | 18000 nM |
| 2 nM | 40 nM | CC1CCCCN1CCNC(=O)c1[nH]cnc1C(=O)Nc1ccc(NC(=O)c2ccc(F)cc2Cl)cc1 (centres unmarked) [Example 191, N^4-{4-[(2-chloro-4-fluorobenzoyl)amino]phenyl}-N^5-[2-(2-methylpiperidin-1-yl)ethyl]-1H-imidazole-4,5-dicarboxamide] | 31000 nM |
| 20 nM | 650 nM | O=C(Nc1ccc(NC(=O)c2nc[nH]c2C(=O)NCCCCN2CCCCC2)cc1)c1ccc(F)cc1Cl [Example 196, N^4-{4-[(2-chloro-4-fluorobenzoyl)amino]phenyl}-N^5-[4-(piperidin-1-yl)butyl]-1H-imidazole-4,5-dicarboxamide] | 30000 nM |
| < 0.5 nM | 110 nM | O=C(Nc1ccc(NC(=O)c2nc[nH]c2C(=O)NCCN2CCC2)cc1)c1ccc(F)cc1Cl [Example 198, N^5-[2-(azetidin-1-yl)ethyl]-N^4-{4-[(2-chloro-4-fluorobenzoyl)amino]phenyl}-1H-imidazole-4,5-dicarboxamide] |  |
| 20 nM | 310 nM | O=C(Nc1ccc(NC(=O)c2nc[nH]c2C(=O)NCCCN2CCOCC2)cc1)c1ccc(F)cc1Cl [Example 204, N^4-{4-[(2-chloro-4-fluorobenzoyl)amino]phenyl}-N^5-[3-(morpholin-4-yl)propyl]-1H-imidazole-4,5-dicarboxamide] | 34500 nM |
| 4 nM | 110 nM | O=C(Nc1ccc(NC(=O)c2nc[nH]c2C(=O)NCCN2CCCC(O)C2)cc1)c1ccc(F)cc1Cl (centres unmarked) [Example 229, N^4-{4-[(2-chloro-4-fluorobenzoyl)amino]phenyl}-N^5-[2-(3-hydroxypiperidin-1-yl)ethyl]-1H-imidazole-4,5-dicarboxamide] | 44500 nM |
| 2 nM | 180 nM | CN1CCN(CCNC(=O)c2[nH]cnc2C(=O)Nc2ccc(NC(=O)c3ccc(F)cc3Cl)cc2)CC1 [Example 238, N^4-{4-[(2-chloro-4-fluorobenzoyl)amino]phenyl}-N^5-[2-(4-methylpiperazin-1-yl)ethyl]-1H-imidazole-4,5-dicarboxamide] | 29000 nM |
